Data from the METLIN SMRT retention time set (Domingo-Almenara et al. 2019).

Assay: gradient 5% acetonitrile 3 min, to 50% in 2 min, to 85% in 15 min, held 3 min, 100 µL/min
Details: column: Zorbax Extend-C18 2.1 x 50 mm; eluents: water / acetonitrile, 0.1% formic acid
Method in brief: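 Data were gathered over 3 months by HPLC coupled to a quadrupole time-of-flight mass spectrometer, operated in positive and negative ionization mode. Mixtures of ~100 pure standards ran on a Zorbax Extend-C18 column (2.1 × 50 mm, 1.8 μm) at 100 μL/min, with water and acetonitrile each containing 0.1% formic acid and dead and dwell volumes of 40 μL and 900 μL. Retention time was read from adduct peaks picked by computer and checked manually.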

In order of rising RP-LC retention time:
1. CCCCC(=O)Nc1ncn[nH]1  568 s
2. CN1CCN(CCCNC(=O)CCC(=O)N2CCCn3nc(-c4cn(C)c5ccccc45)cc32)CC1  583 s
3. CCN(CC)CCNC(=O)c1ccnc(-c2cccs2)c1  597 s
4. COC1C(=O)N(c2cccc(F)c2)C12CCNCC2 (configuration not stated)  604 s
5. O=C(NCc1cccs1)c1coc(NC(=O)C2CC2)n1  614 s
6. Cc1csc(C(=O)N2CC3CC2C(=O)O3)c1 (configuration not stated)  624 s
7. Cc1cnc(C(=O)N2CCCCCC2c2nnc(C)o2)cn1 (configuration not stated)  649 s
8. CCN(CC)S(=O)(=O)c1ccc2c(c1)N(CC(=O)N1CCN(C)CC1)C(=O)C1CCCCN21 (configuration not stated)  658 s
9. CN(C)c1ccc(C(=O)NCC(C)(O)c2ccco2)cc1 (configuration not stated)  665 s
10. c1ccc(-c2nc(-c3ccncc3)no2)c(OC2CCN(Cc3ccsc3)C2)c1 (configuration not stated)  679 s
11. COc1ccc(NS(=O)(=O)c2cc3n(c2)CCN(C)C3=O)cc1Cl  696 s
12. NC(=O)C1CCN(C(=O)CSc2nc3c(c(-c4ccccc4)n2)CCCC3)CC1  702 s
13. CC(C)CNC(=O)C1CCN(C(=O)Nc2ccc(NC(=O)NC3CCCC3)cc2)CC1  728 s
14. COc1ccc(N2CCOCC2)c2sc(NC(=O)N3CCC(C)(O)CC3)nc12  732 s
15. COc1ccc(CCC(=O)Nc2cnn(-c3ncc(N(C)C)cn3)c2)cc1  737 s
16. CN(C)c1ccc(-c2nc3ncccn3c2Nc2cccc(C(F)(F)F)c2)cc1  765 s
17. COc1ccc(-c2nc3ncccn3c2Nc2c(C)cccc2C)cc1  765 s
18. CC(C)OCCCNC(=O)c1ccc2c(c1)CCCN2S(C)(=O)=O  767 s
19. Cc1cc2c(cc1S(=O)(=O)N1CCCC1C(=O)NCc1ccccc1Cl)OCC(=O)N2 (configuration not stated)  791 s
20. C=C1C(=O)[C@]23[C@H](O)[C@H]1CC[C@H]2[C@@]12CO[C@]3(O)[C@@H](O)[C@@H]1C(C)(C)CC[C@@H]2O  794 s
21. CC(C)(C)CC(=O)NCCn1c(=O)n(Cc2ccc(F)cc2)c2cccnc21  808 s
22. COc1ccc(CNC(=O)C2CCN(S(C)(=O)=O)c3ccccc3O2)cc1 (configuration not stated)  810 s
23. O=C(NC1CC1)[C@@H]1C[C@H](Oc2ccccc2)CN1C(=O)COc1ccc(F)cc1  813 s
24. COC(=O)c1cc(S(=O)(=O)N2CCCC2C(=O)Nc2cccc(C#N)c2)cn1C (configuration not stated)  826 s
25. CCC(=O)N1CCc2cc(-c3ccc(C(=O)NC(C)C)cc3)ccc21  832 s
26. Cc1ccc(Sc2cncc3sc(C(N)=O)cc23)cc1  836 s
27. O=C(C(=O)N1CCc2ccccc2C1)c1c[nH]c2ccccc12  836 s
28. Cc1ccc(NC(=O)C2CC(=O)N(CCc3c[nH]c4ccc(F)cc34)C2)cc1C (configuration not stated)  867 s
29. Cc1cc(C)n(-c2ccc(C(=O)NC3CCCC3)cn2)n1  885 s
30. CC(CNC(=O)CN1C(=O)C2CCCCN2c2ccc(S(=O)(=O)N(C)C)cc21)c1ccccc1 (configuration not stated)  943 s
31. CCOc1ccc(-n2c(=O)c3sccc3n(Cc3nc(-c4ccccc4Cl)no3)c2=O)cc1  1020 s
32. COc1ccc(C(=O)Nc2nc3c(s2)CCc2cc(OC)ccc2-3)cc1  1080 s
33. Cc1cc(C)n(-c2ccc(C(=O)NCc3ccc(C(C)C)cc3)cn2)n1  1100 s
34. Cc1cccc(NC(=O)N2CCN(c3nc4ccccc4nc3C(F)(F)F)CC2)c1C  1100 s
35. C=CCn1c(=O)c2ccccc2n(Cc2nc(-c3ccc(Cl)cc3)no2)c1=O  1130 s
36. CCn1cc(-c2nc(C(=O)Nc3cc(F)ccc3F)cs2)c2cccnc21  1220 s
37. CCOC(=O)Cc1c(C)nc2c(-c3cccc(Br)c3)cnn2c1C  1250 s
